The values below come from patent US9006191B2, “Silencing of polo-like kinase expression using interfering RNA” (Protiva Biotherapeutics, Inc., priority 2007, dated 2015).

For one data set, the system named is IFN-α, IFIT1 mRNA. In words: In vivo immune stimulation assay in CD1 ICR mice (plasma IFN-α, IFIT1 mRNA). More on the design: species or system mouse. To be noted: 1:57 PEG-cDMA SNALP, 3 mg/kg IV, 4 h. The procedure:
In vivo immune stimulation assays. Animal studies were performed to test for the immunostimulatory activity of SNALP containing 2′OMe-modified PLK1424 siRNAs. Six-week-old female CD1 ICR mice were used in this study. […] The tolerability of the treatment regime was monitored by animal appearance and behavior.

Data set [1] concerns anti-PEG-lipid IgG and IgM antibodies. The experiment in a line: In vivo PEG-lipid antibody induction assay. Further details: species or system mouse. Particulars: CD1 ICR mice, 1:57 SNALP IV at Days 0, 7, 14; plasma Days 7, 14, 21. The procedure: In vivo PEG-lipid antibody induction assays. Animal studies were performed to test for the induction of an antibody response to 2′OMe-modified PLK1424 siRNAs that were encapsulated in a 1:57 SNALP formulation containing the lipid conjugate PEG-cDMA. Six-week-old female CD1 ICR mice were used in this study. […] Mice were then sacrificed on Day 21. The tolerability of the treatment regime was monitored by animal appearance, behavior, and body weight. Anti-PEG-lipid IgG and IgM antibodies in plasma at Days 7, 14, and 21 were measured by ELISA.

Another data set concerns Hep3B liver tumors. In words: Intrahepatic Hep3B tumor model (survival, body weight, tumor burden). It counts as in vivo. To be noted: Hep3B-nu/nu mouse model, 2 mg/kg twice weekly d11-d28. The procedure: SNALP containing PLK-1 siRNA (“1:57” SNALP formulation: 1.4% PEG-cDMA; 57.1% DLinDMA; 7.1% DPPC; and 34.3% cholesterol) were tested for their effects on the survival of […] mice bearing Hep3B liver tumors.
Intrahepatic tumor models. Liver tumors were established in mice by direct intrahepatic injection of Hep3B or Neuro2a tumor cells (45). Female scid/beige mice (Charles River Laboratories) and male A/J mice (Jackson Laboratories) were used as hosts for the Hep3B and Neuro2a tumors, respectively. Animals received Anafen by SC injection immediately prior to surgery. Individual mice were anaesthetized by isoflourane gas inhalation and eye lube applied to prevent excessive eye drying. While maintained under gas anaesthesia, a single 1.5 cm incision across the midline was made below the sternum and the left lateral hepatic lobe exteriorized. 1×10^6 Hep3B cells or 1×10^5 Neuro2a cells suspended in 25 μL PBS were injected slowly into the lobe at a shallow angle using a Hamilton syringe and 30G needle. A swab was then applied to the puncture wound to stop any bleeding prior to suturing. Mice were allowed to recover from anaesthesia in a sterile cage and monitored closely for 2-4 h before being returned to conventional housing.
Eight to 11 days after tumor implantation, mice were randomized into treatment groups. siRNA SNALP formulations or PBS vehicle control were administered by standard intravenous injection via the lateral tail vein, calculated on a mg siRNA/kg basis according to individual animal weights (10 mL/kg injection volume). Body weights were then monitored throughout the duration of the study as an indicator of developing tumor burden and treatment tolerability. For efficacy studies, defined humane endpoints were determined as a surrogate for survival. Assessments were made by qualified veterinary technicians based on a combination of clinical signs, weight loss, and abdominal distension to define the day of euthanization due to tumor burden.
Measurement of human PLK-1 and GAPDH mRNA in tumor tissues. Tumors were harvested directly into RNALater and stored at 4° C. until processing. 100 mg tumor tissue was homogenized in Tissue and Lysis Solution (EpiCentre Biotechnologies) containing […] proteinase K (EpiCentre) in a Fastprep tissue homogenizer followed by incubation in a 65° C. waterbath for 15 min and centrifuged to clarify lysates. mRNA analysis in FIG. 33B was performed on purified RNA isolated according the 5′-RACE-PCR protocol. Human PLK-1 and GAPDH mRNA were measured in tumor lystes by the QuantiGene bDNA assay (Panomics) as per the manufacturer's instructions (Quantigene 1.0 Manual). […] Data were expressed as mean PLK-1:GAPDH ratio+/−SD of individual animals. Tumor burden was assessed by homogenizing the complete liver from tumor bearing mice and measuring the total hGAPDH signal (RLU's) within the liver. Values were expressed as hGAPDH RLU/mg total liver.

The nature of data set [2]: SNALP particle size and polydispersity. It counts as physicochemical.
Data set [3] deals with IFIT1 mRNA, serum IFNα. To be noted: mouse, in vivo, iv.
Protocol: (§1) Balb/c mice (n=4 per group) were administered 2.5 mg/kg siRNA or lipid vehicle; serum IFNα (pg/mL) and IFIT1 mRNA (relative to GAPDH) from whole liver lysates were assessed after 4, 8, and 16 h by ELISA and bDNA assay, respectively. […] (b) Serum IFNα and (c) liver IFIT1 mRNA were assessed 4 h after administration (mean+SD, n=4).
(§2) SNALP-formulated Luc (unmodified) and the 2′OMe-modified Luc-U/U, PLK1424-2/A, PLK773-1/B, or KSP2263-U/U siRNA were administered at 2 mg/kg i.v. to Balb/C mice. (A) IFIT1 relative to GAPDH mRNA in liver and spleen was assessed at 4 h by bDNA analysis. […] Serum IFNα was assessed at 6 h by ELISA. […] Values represent mean+SD (n=4).
(§3) IFIT1 mRNA and serum cytokines were assessed 4-6 h after SNALP administration based on the approximate time of peak response for these markers. In these studies, SNALP-formulated native Luc siRNA (Table 6) was used as a positive control for immune stimulation.
(§4) In vivo immune stimulation assays. […] 6-8 week old Balb/C mice were obtained from Harlan and subject to a two week acclimation period prior to use. Mice were administered SNALP formulated siRNA (2 mg/kg) in PBS via standard intravenous injection in the lateral tail vein. Blood was collected by cardiac puncture and processed as plasma for cytokine analysis. Liver and spleen were collected into RNALater (Sigma Co.) for IFIT1 mRNA analysis.
(§5) Measurement of IFIT1 mRNA in mouse tissues. Murine liver and spleen were processed for bDNA assay to quantitate IFIT1 mRNA as described above. The IFIT1 probe set was specific to mouse IFIT1 mRNA (positions 4-499 of NM—008331) and the GAPDH probe set was specific to mouse GAPDH mRNA (positions 9-319 of NM—008084). Data is shown as the ratio of IFIT1 relative light units (RLU) to GAPDH RLU.
(§6) Cytokine ELISA. All cytokines were quantified using sandwich ELISA kits. These were mouse interferon-α (PBL Biomedical; Piscataway, N.J.) and human and mouse IL-6 (BD Biosciences; San Diego, Calif.).
Data set [4] concerns IFIT1 mRNA, serum IFNα. The experiment in a line: In vivo immune stimulation assay in Balb/c mice (IFIT1 mRNA, serum IFNα). Particulars: 2 mg/kg IV, 4 h.
Protocol: as §1, §2, §3, §4, §5, §6
The subject of another data set is Neuro2A cells. The experiment in a line: Neuro2A cell viability assay (CellTiter-Blue). The class given is cell-based. To be noted: mouse Neuro2A cells, SNALP-formulated siRNA, viability at 72 h relative to PBS. The procedure:
Various PLK-1 siRNAs were formulated as SNALP (“2:40” SNALP formulation: 2% PEG-cDMA; 40% DLinDMA; 10% DSPC; and 48% cholesterol) and evaluated for their inhibitory effects on cell growth in vitro. HT29 (human colon adenocarcinoma) or Neuro2A (mouse neuroblastoma) cells were treated with various PLK-1 SNALP at a range of siRNA concentrations and their effect on cell viability was evaluated. Viability of cell cultures is expressed as % viability relative to PBS treated controls.
Additional PLK-1 siRNA molecules were formulated as SNALP (“2:40” SNALP formulation: 2% PEG-cDMA; 40% DLinDMA; 10% DSPC; and 48% cholesterol) and evaluated for their inhibitory effects on cell growth in vitro. HT29 or Neuro2A cells were plated in triplicate at 5000 cells/well and 2500 cells/well, respectively. PLK-1 SNALP dosages were as follows: 25 nM; 5 nM; and 1 nM. Cell viability analysis was performed at 72 hours following transfection. SNALP containing a non-targeting (GFP) siRNA were used as a negative control.
Additional PLK-1 siRNA molecules were formulated as SNALP (“2:40” SNALP formulation: 2% PEG-cDMA; 40% DLinDMA; 10% DSPC; and 48% cholesterol) and evaluated for their inhibitory effects on cell growth in vitro. HT29 or Neuro2A cells were plated in triplicate at 5000 cells/well and 2500 cells/well, respectively. PLK-1 SNALP dosages were as follows: 30 nM; 10 nM; and 3.3 nM. Cell viability analysis was performed at 72 hours following transfection. SNALP containing a non-targeting (GFP) siRNA were used as a negative control.

Another data set concerns KSP mRNA. In words: KSP mRNA silencing in Neuro2a cells (bDNA assay). The class given is cell-based, mouse. Particulars: 24 h after transfection. The source says: Activity of the 2′OMe-modified panels of (A) PLK1424 and (B) PLK773 siRNA. Unmodified PLK1424 or PLK773 siRNA (black) were compared in the Hep3B cell viability assay to the 2′OMe modified duplexes 1/A, 2/A, 1/B, 2/B, 1/C, or 2/C that comprise the respective 2′OMe sense/antisense oligonucleotides (see, Table 6). Data are mean viability of triplicate cultures relative to PBS treated cells and representative of 2 independent experiments using SNALP-formulated siRNA. (C) Cytokine induction by unmodified and 2′OMe PLK-1 siRNA in vitro. Murine Flt3L DC were treated with 5 μg/mL unmodified PLK773 or PLK1424 siRNA duplexes (773, 1424) and their constituent sense (S) or antisense (AS) oligonucleotides or the 2′OMe siRNA duplexes PLK773-1/B and PLK1424-2/A formulated in SNALP. IFNα and IL-6 were assayed in culture supernates at 24 h. Values are mean+SD of 3 separate experiments conducted in triplicate cultures. (D,E) Activity of SNALP-formulated KSP2263 siRNA in murine Neuro2a cells. (D) Correlation between KSP mRNA silencing and cell viability relative to PBS control. KSP mRNA was determined by bDNA analysis at 24 h. Duplicate plates were assessed for cell viability at 72 h. (E) Activity screen comparing the unmodified KSP2263 siRNA to the panel of 2′OMe-modified duplexes (see, Table 6) in the Neuro2a cell viability assay. Data represents mean+/−SD triplicate cultures, relative to PBS treatment. […]

Another data set relates to HeLa cells. The experiment in a line: Monoastral spindle formation in HeLa cells. The class given is cell-based, human. Particulars: 20 nM, 16 h. The procedure: HeLa cells were treated for 16 h with (A) Luc or (B) KSP2263 siRNA at 20 nM then immunostained for α-tubulin (FITC). DNA was stained with DAPI and flourescent images captured and overlayed.
A further data set deals with hepatocellular carcinoma. To be noted: patients with advanced disease, phase III; cited from earlier work.

Several values for one entry are separate records, joined by “and”; a condition that tells them apart may be missing. Equal entries are not always repeated. Strand notation (5' to 3'): a small letter for the sugar, then the base; units joined by * are phosphorothioate-linked, units joined directly phosphodiester-linked; [ ] holds rarer units or linkages, { } end groups; capitals alone tell only the bases. d = 2'-deoxy (DNA); r = 2'-OH (RNA)

As to “PLK1424 2/4: 2′OMe-modified PLK1424 siRNA, SEQ ID NO:400/401 (chain 1 AGANCACCCNCCUNAAANANU; chain 2 UAUUUAANGAGGGUGANCUUC; 2'-OMe modifications, chemistry not fully specified)”, the “IFIT1 induction (QG analysis)” value in the data set with IFN-α, IFIT1 mRNA is reported as “no significant IFIT1 induction above that of empty SNALP”. For the same compound, in [1], the “IgG / IgM antibody response against PEG-lipid (PEG-cDMA)” value was “almost no detectable antibody responses against the PEG-lipid”.
For “Luc: unmodified siRNA targeting luciferase, SEQ ID NO:231/232 (chain 1 GAUUAUGUCCGGUUAUGUAUU; chain 2 UACAUAACCGGACAUAAUCUU; unmodified RNA)”, in the data set on Hep3B liver tumors, the “median survival, Study (A)” value came to 67 days and the “median survival, study (B)” value was “undefined”. In addition, the “mean SNALP particle size” value in data set [2] is 90 nm and 82 nm and 72 nm. The “serum IFNα / serum cytokine response” value with IFIT1 mRNA, serum IFNα [3] is “detection of systemic IFNα”. Moreover, in the data set on IFIT1 mRNA, serum IFNα [4], the “increase in IFIT1 mRNA in the liver compared to PBS” value came out at 83 fold and the “increase in IFIT1 mRNA in the spleen compared to PBS” value was 247 fold.
Take “KSP2263: published siRNA targeting KSP, SEQ ID NO:225/226 (chain 1 rCrUrGrArArGrArCrCrUrGrArArGrArCrArArUdTdT; chain 2 rArUrUrGrUrCrUrUrCrArGrGrUrCrUrUrCrArGdTdT)”: the “cell viability / inhibition of cell growth” value in the data set with Neuro2A cells is “loss of cell viability at 72 h”. In addition, in [2], the “mean SNALP particle size” value is 88 nm and the polydispersity is on record as 0.07. For the same compound, the “KSP mRNA” value with KSP mRNA is recorded as “dose-dependent reductions in KSP mRNA”. Also, in the data set on HeLa cells, the monoastral spindle phenotype result is recorded as “monoastral spindles”.
As for “PLK1424 2/6: 2′OMe-modified PLK1424 siRNA, SEQ ID NO:400/403 (chain 1 AGANCACCCNCCUNAAANANU; chain 2 UAUUUAANGAGGGUNANCUNC; 2'-OMe modifications, chemistry not fully specified)”, the “IFIT1 induction (QG analysis)” value in the data set on IFN-α, IFIT1 mRNA was “no significant IFIT1 induction above that of empty SNALP”. Moreover, the “IgG / IgM antibody response against PEG-lipid (PEG-cDMA)” value in data set [1] is listed as “almost no detectable antibody responses against the PEG-lipid”.
The corresponding values for “PLK1424 2/3: 2′OMe-modified PLK1424 siRNA, SEQ ID NO:400/215 (chain 1 AGANCACCCNCCUNAAANANU; chain 2 UAUUUAANGAGGGUGANCUUU; 2'-OMe modifications, chemistry not fully specified)” are “no significant IFIT1 induction above that of empty SNALP” and “almost no detectable antibody responses against the PEG-lipid”.
Consider `CNC(=O)c1cc(Oc2ccc(NC(=O)Nc3ccc(Cl)c(C(F)(F)F)c3)cc2)ccn1` [Sorafenib], for which the survival time with hepatocellular carcinoma was 10.7 mo.
